Tested on: rumen metabolism
Test: not given
Settings: known prior art, administered to ruminant animals; cited from earlier work

For `O=CC(Cl)(Cl)Cl` [chloral], the “effect on rumen metabolism (reducing methane production)” value is given as “beneficial effect on rumen metabolism”.
In the case of `NC(=O)C(Cl)(Cl)Cl` [trichloroacetamide], the “effect on rumen metabolism (reducing methane production)” value is given as “beneficial effect on rumen metabolism”.

Tested on: methane production from ruminal fluid
Test: in vitro assay of inhibition of methane production from ruminal fluid
Type: cell-based, steers (pooled rumen fluid)
Settings: at 1 μg./ml.; in vitro rumen fluid, 39° C., 15-16 hours
Method: Rumen fluid is collected on a regular routine basis from two steers, which are fed on the same hay-plus-concentrate diet. Sampling time is standardised as far as possible, and the fluid from the two animals is pooled on a 50/50 basis. Large particulate matter is removed by filtering the pooled fluid through four layers of muslin cloth. The filtrate is then diluted in the ratio of one volume of filtrate to three volumes of an artificial rumen fluid (prepared as described by G. L. Bales et al., Journal of Dairy Science, 1976, volume 59, page 1850, but omitting acetic acid), and the pH of the mixture is adjusted to 6.9-7.0 with saturated aqueous sodium carbonate solution. Aliquots (50 ml.) of this mixture are dispensed into 100 ml. conical flasks containing dried ground hay (0.5 g.), and each flask is used to test a test compound at a particular concentration.
The test compound is added to the conical flask as a solution in ethanol, the flask is flushed with carbon dioxide gas, stoppered with a suba-seal, and incubated at 39° C. for 15-16 hours. After one hour, a narrow bore needle is inserted through the suba-seal to relieve the gas pressure, and the needle is withdrawn 30 minutes before the incubation is ended. Fermentation is then stopped by placing the flask in ice, and after 15 minutes cooling, the gas over the liquid is analysed for methane by gas chromatography, and the concentration of the test compound required to produce a 50% reduction in methane production (ED50 in μg./ml.) is calculated.
The test of methane inhibition described in Example 12 was repeated for various other compounds, to give the results shown below. The results are expressed as the percentage inhibition of methane production caused by 1 μg./ml. of a test compound, except for those compounds indicated by *, for which 3 μg./ml. was used.

Point of comparison: `Nc1ccc2c(c1)C(=O)NC(C(Cl)(Cl)Cl)O2` (stereo not shown) [drawing 8; R1=H; R3=NH2; R5=H, 6-amino-3,4-dihydro-2-trichloromethyl-2H-benzo[e]-[1,3]-oxazin-4-one], inhibition at 1 µg/mL 98%. Against it:
- O=C1NC(C(Cl)(Cl)Cl)Oc2ccc(C=NO)cc21 (stereo not shown) [drawing 8; R1=H; R3=HO . N:CH; R5=H, 3,4-dihydro-6-hydroxyiminomethyl-2-trichloromethyl-2-H-benzo[e]-[1,3]-oxazin-4-one] — lower, 41%
- O=C1NC(C(Cl)(Cl)Cl)Oc2ccc(S(=O)(=O)O)cc21 (stereo not shown) [drawing 8; R1=H; R3=SO3 H; R5=H] — lower, 11%
- Cc1cccc2c1NC(C(Cl)(Cl)Cl)OC2 (stereo not shown) [drawing 9; R1=CH3; R3=H; R11=H, 1,2-dihydro-8-methyl-2-trichloromethyl-4H-benzo[d]-[1,3]-oxazine] — higher, 100%
- CC(=O)Oc1ccc2c(c1)COC(C(Cl)(Cl)Cl)N2 (stereo not shown) [drawing 9; R1=H; R3=CH3 CO . O; R11=H, 6-acetoxy-1,2-dihydro-2-trichloromethyl-4H-benzo[d]-[1,3]-oxazine] — lower, 30%
- COC(=O)c1ccc2c(c1)COC(C(Cl)(Cl)Cl)N2 (stereo not shown) [drawing 9; R1=H; R3=CH3 O . CO; R11=H, methyl 1,2-dihydro-2-trichloromethyl-4H-benzo[d]-[1,3]-oxazine-6-carboxylate] — higher, 100%
- Clc1ccc2c(c1)COC(C(Cl)(Cl)Cl)N2 (stereo not shown) [drawing 9; R1=H; R3=Cl; R11=H, 6-chloro-1,2-dihydro-2-trichloromethyl-4H-benzo[d]-[1,3]-oxazine] — higher, 100%
- CCOC(=O)C1OC(C(Cl)(Cl)Cl)Nc2ccccc21 (stereo not shown) [drawing 9; R1=H; R3=H; R11=C2 H5 O . CO, ethyl 1,2-dihydro-2-trichloromethyl-4H-benzo[d]-[1,3]oxazine-4-carboxylate] — lower, 24%
- O=C(Nc1ccccc1)C1OC(C(Cl)(Cl)Cl)Nc2ccccc21 (stereo not shown) [drawing 9; R1=H; R3=H; R11=C6 H5 NH . CO, N-phenyl 1,2-dihydro-2-trichloromethyl-4H-benzo[d]-[1,3]-oxazine-4-carboxamide] — lower, 57%
- COC(=O)C1OC(C(Cl)(Cl)Cl)Nc2ccccc21 (stereo not shown) [drawing 9; R1=H; R3=H; R11=CH3 O . CO, methyl 1,2-dihydro-2-trichloromethyl-4H-benzo[d]-[1,3]-oxazine-4-carboxylate] — lower, 46%
- O=C(O)C1OC(C(Cl)(Cl)Cl)Nc2ccccc21 (stereo not shown) [drawing 9; R1=H; R3=H; R11=COOH, 1,2-dihydro-2-trichloromethyl-4H-benzo-[d]-[1,3]-oxazine-4-carboxylic acid] — lower, 14%
- CC(C)OC(=O)C1OC(C(Cl)(Cl)Cl)Nc2ccccc21 (stereo not shown) [drawing 9; R1=H; R3=H; R11=i-C3 H7 O . CO, isopropyl 1,2-dihydro-2-trichloromethyl-4H-benzo[d]-[1,3]-oxazine-4-carboxylate] — lower, 37%
- CCCOC(=O)C1OC(C(Cl)(Cl)Cl)Nc2ccccc21 (stereo not shown) [drawing 9; R1=H; R3=H; R11=n-C3 H7 O . CO, propyl 1,2-dihydro-2-trichloromethyl-4H-benzo[d]-[1,3]-oxazine-4-carboxylate] — lower, 31%
- CCCCOC(=O)C1OC(C(Cl)(Cl)Cl)Nc2ccccc21 (stereo not shown) [drawing 9; R1=H; R3=H; R11=n-C4 H9 O . CO, butyl 1,2-dihydro-2-trichloromethyl-4H-benzo[d]-[1,3]-oxazine-4-carboxylate] — lower, 12%
- CC(=O)N1C(=O)c2ccccc2N(C(C)=O)C1C(Cl)(Cl)Cl (stereo not shown) [drawing 10; R3=H; R5=CH3 CO; R6=CH3 CO, 1,3-diacetyl-1,2-dihydro-2-trichloromethylquinazolin-4-one] — lower, 90%

Same assay, conditions: at 3 μg./ml.; in vitro rumen fluid, 39° C., 15-16 hours; read-out: % Methane Inhibition (compounds indicated by *)

Point of comparison: `O=C(O)c1ccc2c(c1)C(=O)NC(C(Cl)(Cl)Cl)N2` (stereo not shown) [drawing 10; R3=COOH; R5=H; R6=H, 1,2-dihydro-4-oxo-2-trichloromethylquinazoline-6-carboxylic acid], inhibition at 3 µg/mL 5%. Against it:
- CCOC(=O)c1ccc2c(c1)C(=O)NC(C(Cl)(Cl)Cl)N2 (stereo not shown) [drawing 10; R3=C2 H5 O . CO; R5=H; R6=H, ethyl 1,2-dihydro-4-oxo-2-trichloromethylquinazoline-6-carboxylate] — higher, 71%

— patent US4268510A, “1,3-Benzoxazine trichloromethyl derivatives, compositions and use” (Imperial Chemical Industries Limited, priority 1978, dated 1981)
